Test results: ChEMBL document CHEMBL1201862, “PubChem BioAssay data set” (2004)
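How tested: cells in 96-well plates exposed to compound for 48 hours at five concentrations. GI50 is the concentration that inhibits growth by half.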 Activity calls are given as the source filed them. Rule as the data show it: active = GI50 up to about 1.1 µM and inactive = higher.

Columns and labels:
Assay in all cases: NCI-60 cell line screen, 48 h
BT-549 = test system: BT-549
OVCAR-8 = test system: OVCAR-8
TK-10 = test system: TK-10
A498 = test system: A498
MDA-N = test system: MDA-N
NCI-H522 = test system: NCI-H522
RPMI-8226 = test system: RPMI-8226
SNB-19 = test system: SNB-19
HCT-116 = test system: HCT-116
HOP-62 = test system: HOP-62
Hs-578T = test system: Hs-578T
MDA-MB-435 = test system: MDA-MB-435
SK-OV-3 = test system: SK-OV-3
HT-29 = test system: HT-29
SF-295 = test system: SF-295
NCI-H226 = test system: NCI-H226
SN12C = test system: SN12C
OVCAR-5 = test system: OVCAR-5
EKVX = test system: EKVX
IGROV-1 = test system: IGROV-1
UACC-257 = test system: UACC-257
HOP-92 = test system: HOP-92
HL-60 = test system: HL-60
786-0 = test system: 786-0
SW-620 = test system: SW-620
NCI/ADR-RES = test system: NCI/ADR-RES
RXF 393 = test system: RXF 393
HCC 2998 = test system: HCC 2998
KM12 = test system: KM12
MDA-MB-231 = test system: MDA-MB-231
A549 = test system: A549
OVCAR-3 = test system: OVCAR-3
SK-MEL-5 = test system: SK-MEL-5
SR = test system: SR
MOLT-4 = test system: MOLT-4
NCI-H23 = test system: NCI-H23
T47D = test system: T47D
SF-268 = test system: SF-268
OVCAR-4 = test system: OVCAR-4
MCF7 = test system: MCF7
PC-3 = test system: PC-3
Malme-3M = test system: Malme-3M
SNB-75 = test system: SNB-75
CCRF-CEM = test system: CCRF-CEM
ACHN = test system: ACHN
NCI-H460 = test system: NCI-H460
DU-145 = test system: DU-145
SK-MEL-2 = test system: SK-MEL-2
UO-31 = test system: UO-31
U-251 = test system: U-251
COLO 205 = test system: COLO 205
HCT-15 = test system: HCT-15
SK-MEL-28 = test system: SK-MEL-28
M14 = test system: M14
UACC-62 = test system: UACC-62
CAKI-1 = test system: CAKI-1
SF-539 = test system: SF-539
LOX IMVI = test system: LOX IMVI
K562 = test system: K562

With `COc1ccc(/C=N/n2cnc3[nH]c(C)c(Cc4ccccc4)c3c2=N)cc1` the GI50 (BT-549) was 75 µM (inactive), the GI50 (OVCAR-8) was 90.6 µM (inactive) and the GI50 (TK-10) was > 100 µM (inactive). For the same molecule, the GI50 (A498) was 67.8 µM (inactive), the GI50 (MDA-N) was > 100 µM (inactive) and the GI50 (NCI-H522) was 65 µM (inactive). For the same molecule, the GI50 (RPMI-8226) was 34.8 µM (inactive), the GI50 (SNB-19) was > 100 µM (inactive) and the GI50 (HCT-116) was > 100 µM (inactive). The GI50 (HOP-62) was > 100 µM (inactive), the GI50 (Hs-578T) was 80.9 µM (inactive) and the GI50 (MDA-MB-435) was > 100 µM (inactive). The GI50 (SK-OV-3) was > 100 µM (inactive), the GI50 (HT-29) was > 100 µM (inactive) and the GI50 (SF-295) was 53.3 µM (inactive). For the same molecule, the GI50 (NCI-H226) was > 100 µM (inactive), the GI50 (SN12C) was 92 µM (inactive) and the GI50 (OVCAR-5) was > 100 µM (inactive). For the same molecule, the GI50 (EKVX) was > 100 µM (inactive), the GI50 (IGROV-1) was 39.7 µM (inactive) and the GI50 (UACC-257) was > 100 µM (inactive). For the same molecule, the GI50 (HOP-92) was 29.2 µM (inactive), the GI50 (HL-60) was > 100 µM (inactive) and the GI50 (786-0) was > 100 µM (inactive). The GI50 (SW-620) was 57.1 µM (inactive), the GI50 (NCI/ADR-RES) was > 100 µM (inactive) and the GI50 (RXF 393) was 19.2 µM (inactive). For the same molecule, the GI50 (HCC 2998) was > 100 µM (inactive), the GI50 (KM12) was > 100 µM (inactive) and the GI50 (MDA-MB-231) was 68.4 µM (inactive). The GI50 (A549) was 89.5 µM (inactive), the GI50 (OVCAR-3) was > 100 µM (inactive) and the GI50 (SK-MEL-5) was > 100 µM (inactive). For the same molecule, the GI50 (SR) was > 100 µM (inactive), the GI50 (MOLT-4) was 52.1 µM (inactive) and the GI50 (NCI-H23) was 53.1 µM (inactive). The GI50 (T47D) was 30.1 µM (inactive), the GI50 (SF-268) was 72.9 µM (inactive) and the GI50 (OVCAR-4) was > 100 µM (inactive). The GI50 (MCF7) was 39.1 µM (inactive), the GI50 (PC-3) was > 100 µM (inactive) and the GI50 (Malme-3M) was > 100 µM (inactive). For the same molecule, the GI50 (SNB-75) was 71.9 µM (inactive), the GI50 (CCRF-CEM) was 54.3 µM (inactive) and the GI50 (ACHN) was 97.1 µM (inactive). The GI50 (NCI-H460) was 81.7 µM (inactive), the GI50 (DU-145) was > 100 µM (inactive) and the GI50 (SK-MEL-2) was > 100 µM (inactive). The GI50 (UO-31) was > 100 µM (inactive), the GI50 (U-251) was 86.1 µM (inactive) and the GI50 (COLO 205) was 75.9 µM (inactive). The GI50 (HCT-15) was greater than 100 µM, the GI50 (SK-MEL-28) was > 100 µM (inactive) and the GI50 (M14) was > 100 µM (inactive). The GI50 (UACC-62) was > 100 µM (inactive) and the GI50 (CAKI-1) was > 100 µM (inactive).

For `CC(C)NCC(O)c1ccc(O)c2ncccc12` (stereo unspecified), the GI50 (BT-549) was > 100 µM (inactive), the GI50 (OVCAR-8) was 33.3 µM (inactive) and the GI50 (TK-10) was 47.3 µM (inactive). The GI50 (A498) was > 100 µM (inactive), the GI50 (MDA-N) was 91.2 µM (inactive) and the GI50 (NCI-H522) was 47.2 µM (inactive). The GI50 (RPMI-8226) was 49.1 µM (inactive), the GI50 (SNB-19) was > 100 µM (inactive) and the GI50 (HCT-116) was 26.4 µM (inactive). The GI50 (HOP-62) was 35.5 µM (inactive), the GI50 (Hs-578T) was > 100 µM (inactive) and the GI50 (MDA-MB-435) was > 100 µM (inactive). For the same molecule, the GI50 (SK-OV-3) was 21.9 µM (inactive), the GI50 (HT-29) was 36.4 µM (inactive) and the GI50 (SF-295) was 30.9 µM (inactive). For the same molecule, the GI50 (NCI-H226) was > 100 µM (inactive), the GI50 (SN12C) was 30.3 µM (inactive) and the GI50 (OVCAR-5) was > 100 µM (inactive). For the same molecule, the GI50 (EKVX) was 49.3 µM (inactive), the GI50 (IGROV-1) was 33.5 µM (inactive) and the GI50 (UACC-257) was 50 µM (inactive). For the same molecule, the GI50 (HOP-92) was > 100 µM (inactive), the GI50 (HL-60) was 24.6 µM (inactive) and the GI50 (786-0) was 45.5 µM (inactive). The GI50 (SW-620) was 36.5 µM (inactive), the GI50 (NCI/ADR-RES) was 27.7 µM (inactive) and the GI50 (SF-539) was 43 µM (inactive). The GI50 (RXF 393) was 91 µM (inactive), the GI50 (HCC 2998) was 46 µM (inactive) and the GI50 (KM12) was 54.6 µM (inactive). For the same molecule, the GI50 (MDA-MB-231) was 27 µM (inactive), the GI50 (A549) was 6.82 µM (inactive) and the GI50 (OVCAR-3) was 16 µM (inactive). The GI50 (LOX IMVI) was 30.3 µM (inactive), the GI50 (SK-MEL-5) was 66.4 µM (inactive) and the GI50 (SR) was 25.4 µM (inactive). For the same molecule, the GI50 (MOLT-4) was 18.2 µM (inactive), the GI50 (NCI-H23) was 11 µM (inactive) and the GI50 (T47D) was 33.8 µM (inactive). The GI50 (K562) was 19.5 µM (inactive), the GI50 (SF-268) was 35.3 µM (inactive) and the GI50 (OVCAR-4) was 68.5 µM (inactive). The GI50 (MCF7) was 7.28 µM (inactive), the GI50 (PC-3) was 46.5 µM (inactive) and the GI50 (SNB-75) was > 100 µM (inactive). For the same molecule, the GI50 (ACHN) was 42.3 µM (inactive), the GI50 (NCI-H460) was 5.58 µM (inactive) and the GI50 (DU-145) was 37.2 µM (inactive). For the same molecule, the GI50 (SK-MEL-2) was 52.8 µM (inactive), the GI50 (UO-31) was 67.6 µM (inactive) and the GI50 (U-251) was 31.5 µM (inactive). The GI50 (COLO 205) was 18.7 µM (inactive), the GI50 (HCT-15) was 25.9 µM and the GI50 (SK-MEL-28) was > 100 µM (inactive). For the same molecule, the GI50 (M14) was 42.4 µM (inactive), the GI50 (UACC-62) was 60 µM (inactive) and the GI50 (CAKI-1) was 64.9 µM (inactive).

With `CN1CCC2(c3ccccc3)CC(=O)/C(=C/c3ccc(Cl)c(Cl)c3)C1C2.[O-][Cl+3]([O-])([O-])O` (stereo unspecified) the GI50 (BT-549) was 2.72 µM (inactive), the GI50 (OVCAR-8) was 2.21 µM (inactive) and the GI50 (TK-10) was 3.71 µM (inactive). The GI50 (A498) was 5.2 µM (inactive), the GI50 (MDA-N) was 4.42 µM (inactive) and the GI50 (NCI-H522) was 1.84 µM (inactive). The GI50 (RPMI-8226) was 2.29 µM (inactive), the GI50 (SNB-19) was 2.3 µM (inactive) and the GI50 (HCT-116) was 2.62 µM (inactive). The GI50 (HOP-62) was 3.37 µM (inactive), the GI50 (Hs-578T) was 4.47 µM (inactive) and the GI50 (MDA-MB-435) was 2.11 µM (inactive). The GI50 (SK-OV-3) was 4.05 µM (inactive), the GI50 (HT-29) was 1.95 µM (inactive) and the GI50 (SF-295) was 2.43 µM (inactive). The GI50 (NCI-H226) was 2.09 µM (inactive), the GI50 (SN12C) was 1.85 µM (inactive) and the GI50 (OVCAR-5) was 2.35 µM (inactive). The GI50 (EKVX) was 2.94 µM (inactive), the GI50 (IGROV-1) was 1.95 µM (inactive) and the GI50 (UACC-257) was 9.46 µM (inactive). The GI50 (HOP-92) was 2.31 µM (inactive), the GI50 (HL-60) was 0.333 µM (active) and the GI50 (786-0) was 2.37 µM (inactive). For the same molecule, the GI50 (SW-620) was 2.59 µM (inactive), the GI50 (NCI/ADR-RES) was 2.78 µM (inactive) and the GI50 (SF-539) was 1.98 µM (inactive). The GI50 (RXF 393) was 2.61 µM (inactive), the GI50 (KM12) was 1.94 µM (inactive) and the GI50 (MDA-MB-231) was 1.69 µM (inactive). The GI50 (A549) was 3.4 µM (inactive), the GI50 (OVCAR-3) was 2.9 µM (inactive) and the GI50 (LOX IMVI) was 1.71 µM (inactive). The GI50 (SK-MEL-5) was 2.6 µM (inactive), the GI50 (SR) was 0.968 µM (active) and the GI50 (MOLT-4) was 2.6 µM (inactive). The GI50 (NCI-H23) was 2.86 µM (inactive), the GI50 (T47D) was 4.7 µM (inactive) and the GI50 (K562) was 2.52 µM (inactive). The GI50 (SF-268) was 1.86 µM (inactive), the GI50 (OVCAR-4) was 2.51 µM (inactive) and the GI50 (MCF7) was 3.4 µM (inactive). The GI50 (PC-3) was 1.96 µM (inactive), the GI50 (Malme-3M) was 11.5 µM (inactive) and the GI50 (SNB-75) was 3.41 µM (inactive). The GI50 (CCRF-CEM) was 2.02 µM (inactive), the GI50 (ACHN) was 1.77 µM (inactive) and the GI50 (NCI-H460) was 2.35 µM (inactive). For the same molecule, the GI50 (DU-145) was 3.25 µM (inactive), the GI50 (SK-MEL-2) was 3.74 µM (inactive) and the GI50 (UO-31) was 1.95 µM (inactive). The GI50 (U-251) was 1.82 µM (inactive), the GI50 (COLO 205) was 1.95 µM (inactive) and the GI50 (HCT-15) was 2.14 µM. For the same molecule, the GI50 (SK-MEL-28) was 2.1 µM (inactive), the GI50 (M14) was 2.96 µM (inactive) and the GI50 (UACC-62) was 1.51 µM (inactive). For the same molecule, the GI50 (CAKI-1) was 3.94 µM (inactive).
